Experimental data reported in PubChem BioAssay (NCI).
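The concentration for 50% growth inhibition is given as GI50. TGI: total growth inhibition.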

How the values were obtained:
Assay in all cases: growth of human tumour cells (NCI), 384-well format
MDA-MB-435 melanoma = system: MDA-MB-435 melanoma
NCI-H322M lung = system: NCI-H322M lung
MCF7 breast = system: MCF7 breast
DU-145 prostate = system: DU-145 prostate
MALME-3M melanoma = system: MALME-3M melanoma
HCC-2998 colon = system: HCC-2998 colon
SNB-19 CNS = system: SNB-19 CNS
A498 renal = system: A498 renal
A549 NSCLC = system: A549 NSCLC
CAKI-1 renal = system: CAKI-1 renal
SF-268 CNS = system: SF-268 CNS
SR leukemia = system: SR leukemia
NCI/ADR-RES ovarian = system: NCI/ADR-RES ovarian
NCI-H23 lung = system: NCI-H23 lung
NCI-H522 lung = system: NCI-H522 lung
OVCAR-8 ovarian = system: OVCAR-8 ovarian
T-47D breast = system: T-47D breast
OVCAR-5 ovarian = system: OVCAR-5 ovarian
OVCAR-3 ovarian = system: OVCAR-3 ovarian
M14 melanoma = system: M14 melanoma
TK-10 renal = system: TK-10 renal
K-562 leukemia = system: K-562 leukemia
SK-MEL-2 melanoma = system: SK-MEL-2 melanoma
SK-MEL-28 melanoma = system: SK-MEL-28 melanoma
UO-31 renal = system: UO-31 renal
COLO 205 colon = system: COLO 205 colon
786-0 renal = system: 786-0 renal
HOP-62 NSCLC = system: HOP-62 NSCLC
LOX IMVI melanoma = system: LOX IMVI melanoma
SK-MEL-5 melanoma = system: SK-MEL-5 melanoma
RXF 393 renal = system: RXF 393 renal
SW-620 colon = system: SW-620 colon
HL-60(TB) leukemia = system: HL-60(TB) leukemia
HCT-15 colon = system: HCT-15 colon
PC-3 prostate = system: PC-3 prostate
HCT-116 colon = system: HCT-116 colon
MDA-MB-231 breast = system: MDA-MB-231 breast
ACHN renal = system: ACHN renal
SF-539 CNS = system: SF-539 CNS
UACC-257 melanoma = system: UACC-257 melanoma
HOP-92 NSCLC = system: HOP-92 NSCLC
SN12C renal = system: SN12C renal
SK-OV-3 ovarian = system: SK-OV-3 ovarian
NCI-H460 NSCLC = system: NCI-H460 NSCLC
CCRF-CEM leukemia = system: CCRF-CEM leukemia
KM12 colon = system: KM12 colon
HT29 colon = system: HT29 colon
RPMI-8226 leukemia = system: RPMI-8226 leukemia
MOLT-4 leukemia = system: MOLT-4 leukemia
UACC-62 melanoma = system: UACC-62 melanoma
BT-549 breast = system: BT-549 breast
SF-295 CNS = system: SF-295 CNS
U251 glioblastoma = system: U251 glioblastoma
NCI-H226 lung = system: NCI-H226 lung
OVCAR-4 ovarian = system: OVCAR-4 ovarian
MDA-MB-468 breast = system: MDA-MB-468 breast
IGROV1 ovarian = system: IGROV1 ovarian

In the case of COc1nnc2ccc(N3CCC(c4ccc(OCCN5CCN(C)C(=O)[C@H]5C)cc4)CC3)nn12, the GI50 (MDA-MB-435 melanoma) is reported as 75.9 nM, the TGI (MDA-MB-435 melanoma) is reported as > 100000 nM and the GI50 (NCI-H322M lung) is reported as 28.9 nM. For the same molecule, the TGI (NCI-H322M lung) was 640 nM, the GI50 (MCF7 breast) was 11.7 nM and the TGI (MCF7 breast) was 158 nM. For the same molecule, the GI50 (DU-145 prostate) was 369 nM, the TGI (DU-145 prostate) was > 100000 nM and the GI50 (MALME-3M melanoma) was 73.8 nM. The TGI (MALME-3M melanoma) was 791 nM, the GI50 (HCC-2998 colon) was 13.3 nM and the TGI (HCC-2998 colon) was 48.8 nM. The GI50 (SNB-19 CNS) was 311 nM, the TGI (SNB-19 CNS) was 77900 nM and the GI50 (A498 renal) was 53.8 nM. The TGI (A498 renal) was 655 nM, the GI50 (A549 NSCLC) was 42.5 nM and the TGI (A549 NSCLC) was 1640 nM. It also gave a GI50 (CAKI-1 renal) of 16.9 nM, a TGI (CAKI-1 renal) of 382 nM and a GI50 (SF-268 CNS) of 58.6 nM. For the same molecule, the TGI (SF-268 CNS) was 14400 nM, the GI50 (SR leukemia) was < 10 nM and the TGI (SR leukemia) was 20.8 nM. It also gave a GI50 (NCI/ADR-RES ovarian) of 269 nM, a TGI (NCI/ADR-RES ovarian) of 2180 nM and a GI50 (NCI-H23 lung) of 62.7 nM. The TGI (NCI-H23 lung) was 629 nM, the GI50 (NCI-H522 lung) was < 10 nM and the TGI (NCI-H522 lung) was 46 nM. The GI50 (OVCAR-8 ovarian) was 23.9 nM, the TGI (OVCAR-8 ovarian) was 218 nM and the GI50 (T-47D breast) was 29.7 nM. It also gave a TGI (T-47D breast) of 537 nM, a GI50 (OVCAR-5 ovarian) of 60.5 nM and a TGI (OVCAR-5 ovarian) of 2970 nM. It also gave a GI50 (OVCAR-3 ovarian) of 17.2 nM, a TGI (OVCAR-3 ovarian) of 135 nM and a GI50 (M14 melanoma) of 18.3 nM. For the same molecule, the TGI (M14 melanoma) was 1570 nM, the GI50 (TK-10 renal) was 34.8 nM and the TGI (TK-10 renal) was 460 nM. For the same molecule, the GI50 (K-562 leukemia) was 35 nM, the TGI (K-562 leukemia) was 3710 nM and the GI50 (SK-MEL-2 melanoma) was < 10 nM. The TGI (SK-MEL-2 melanoma) was 41.3 nM, the GI50 (SK-MEL-28 melanoma) was 30.6 nM and the TGI (SK-MEL-28 melanoma) was 1490 nM. The GI50 (UO-31 renal) was 56.9 nM, the TGI (UO-31 renal) was 1560 nM and the GI50 (COLO 205 colon) was 35.9 nM. It also gave a TGI (COLO 205 colon) of 248 nM, a GI50 ([…]-0 renal) of 45.5 nM and a TGI (786-0 renal) of 13400 nM. It also gave a GI50 (HOP-62 NSCLC) of 27.4 nM, a TGI (HOP-62 NSCLC) of 475 nM and a GI50 (LOX IMVI melanoma) of 27.2 nM. For the same molecule, the TGI (LOX IMVI melanoma) was 61 nM, the GI50 (SK-MEL-5 melanoma) was 17.8 nM and the TGI (SK-MEL-5 melanoma) was 98.6 nM. The GI50 (RXF 393 renal) was 22.8 nM, the TGI (RXF 393 renal) was 78.8 nM and the GI50 (SW-620 colon) was 114 nM. For the same molecule, the TGI (SW-620 colon) was 1280 nM, the GI50 (HL-60(TB) leukemia) was < 10 nM and the TGI (HL-60(TB) leukemia) was 19.1 nM. For the same molecule, the GI50 (HCT-15 colon) was 31.7 nM, the TGI (HCT-15 colon) was 194 nM and the GI50 (PC-3 prostate) was 122 nM. It also gave a TGI (PC-3 prostate) of 90700 nM, a GI50 (HCT-116 colon) of 37.7 nM and a TGI (HCT-116 colon) of 2530 nM. The GI50 (MDA-MB-231 breast) was 46.2 nM, the TGI (MDA-MB-231 breast) was 2570 nM and the GI50 (ACHN renal) was 108 nM. It also gave a TGI (ACHN renal) of 3050 nM, a GI50 (SF-539 CNS) of 53.9 nM and a TGI (SF-539 CNS) of 8620 nM. It also gave a GI50 (UACC-257 melanoma) of 25 nM, a TGI (UACC-257 melanoma) of 573 nM and a GI50 (HOP-92 NSCLC) of 12.7 nM. For the same molecule, the TGI (HOP-92 NSCLC) was 74.5 nM, the GI50 (SN12C renal) was 165 nM and the TGI (SN12C renal) was 1480 nM. The GI50 (SK-OV-3 ovarian) was 17.3 nM, the TGI (SK-OV-3 ovarian) was 144 nM and the GI50 (NCI-H460 NSCLC) was 58.7 nM. The TGI (NCI-H460 NSCLC) was 15400 nM, the GI50 (CCRF-CEM leukemia) was 26.8 nM and the TGI (CCRF-CEM leukemia) was 166 nM. For the same molecule, the GI50 (KM12 colon) was 46 nM, the TGI (KM12 colon) was 12500 nM and the GI50 (HT29 colon) was 28.8 nM. For the same molecule, the TGI (HT29 colon) was 2120 nM, the GI50 (RPMI-8226 leukemia) was 12.2 nM and the TGI (RPMI-8226 leukemia) was 33.8 nM. The GI50 (MOLT-4 leukemia) was 14.3 nM, the TGI (MOLT-4 leukemia) was 37.7 nM and the GI50 (UACC-62 melanoma) was < 10 nM. The TGI (UACC-62 melanoma) was 96.4 nM, the GI50 (BT-549 breast) was 23.1 nM and the TGI (BT-549 breast) was 214 nM. The GI50 (SF-295 CNS) was 86.4 nM, the TGI (SF-295 CNS) was 4970 nM and the GI50 (U251 glioblastoma) was 77.1 nM. For the same molecule, the TGI (U251 glioblastoma) was 11900 nM, the GI50 (NCI-H226 lung) was 38.9 nM and the TGI (NCI-H226 lung) was 416 nM. The GI50 (OVCAR-4 ovarian) was 10.2 nM, the TGI (OVCAR-4 ovarian) was 40.2 nM and the GI50 (MDA-MB-468 breast) was < 10 nM. It also gave a TGI (MDA-MB-468 breast) of 51.2 nM, a GI50 (IGROV1 ovarian) of 29.3 nM and a TGI (IGROV1 ovarian) of 162 nM.
